Entries after “also recorded” stand apart in the source; their conditions may differ.

These results are taken from patent publication US20050171053A1, “Carrageenan based antimicrobial compositions” (FMC Corporation, priority 2002, published 2005).

For series [1], the system named is HSV-2. Put plainly: HSV-2/mouse system, formulations with and without LSA. Format: in vivo, mice. The settings on record: for effect of addition to the K-II/λ carrageenan composition on efficacy against HSV-2 infection in mice: 5% added. The protocol: LSA-carrageenan was compared to carrageenan in the HSV-2/mouse system in order to determine efficacy in blocking viral infection in vivo.
Each formulation is initially tested in a total of 20 mice. Compounds or formulations that show a blocking effect are assayed again in another 20 mice.
Subsequently, LSA was assayed without Carrageenan to better evaluate its inhibitory properties. LSA was added to the inert thickener, methylcellulose, to maintain the same viscosity that vaginal products (lubricants, spermicides, and microbicides) generally have. (Data shown below.)

For series [2] the following is noted: in vivo, po; cited from earlier work.
For series [3] the following is noted: in vivo, po; cited from earlier work. The source holds these as a separate data set.
Series [4] has as its system human papillomavirus. Put plainly: Protection of epithelial cells against human papillomavirus. It counts as cell-based. The text has this: (§1) LSA is effective as a microbicide against HSV-2 infection, HIV, and other STI's, with or without carrageenan. […] The inhibitory effect may be observed with other enveloped viruses such as the human pathogen, human T cell leukemia virus. In addition, epithelial cells are protected against the human papillomavirus, which is not an enveloped virus. The inhibitory efficaciousness of LSA may thus extend to a broader range of STI's.

The subject of series [5] is HIV. Put plainly: Protection of epithelial cells in vitro against HIV infection. Format: cell-based.
From the text: FIG. 5 is a plot of the percent inhibition by LSA of viral replication as measured by p24 ELISA.
as §1

For series [6] the following is noted: in vivo; cited from earlier work.
For series [7], the system named is progestational potency. To be noted: cited from earlier work.
Series [8] has as its system androgenic, estrogenic and glucocorticoid-like (hepatic glycogen deposition) activity. To be noted: cited from earlier work.
The nature of series [9]: Diffusion of NES through a dialysis membrane (HPLC). It counts as physicochemical. The settings on record: molecular weight cutoff 1000, HPLC. The text has this: FIG. 10 is a graph of the amount of Nestorone released from a composition containing the carrageenans of the present invention.
We examined diffusion of NES through a dialysis membrane with a molecular weight cutoff of 1000. The molecular weight of NES is 370. […] Results are illustrated in FIG. 10. […] However, the rate of diffusion observed through the dialysis membrane cannot be related to the rate of diffusion that would be observed in the human vagina as the rate of diffusion was dependant on the surface area of the dialysis bag. Conditions in the vagina would be different.
Diffusion of NES from CARRA/NES was investigated by two different methods, membrane dialysis and Ultrafree-15 centrifugation. In the membrane dialysis experiments, the membrane cutoff is 1,000, and diffusion of NES was measured by HPLC. […] In the Ultrafree-15 centrifugation experiments, a Millipore, Ultrafree-15 centrifugal filter and tube assembly was employed, which allows the passage of molecules of a MW<500 pass through; NES MW is 370.

Take heparin: the “effect of addition to the K-II/λ carrageenan composition on efficacy against HSV-2 infection in mice” value in [1] is on record as “had no effect on efficacy”.
carrageenan: in series [2], the absorption result was “virtually non-existent” and the “breakdown in the gastrointestinal tract” value is given as “minimal at best”. The toxicity result in series [3] was “non-toxic”.
Take lignosulfonic acid [LSA]: the “protection of epithelial cells against human papillomavirus” value in series [4] was “protected”. The “protection of epithelial cells against HIV infection” value in [5] is on record as “effective in protecting”. The “effectiveness of LSA” value in series [1] (concentration of 0.25%) was “highly effective”. Also, the “blocking of HSV-2 infection in mice by LSA without carrageenan” value in [1] (mouse, in vivo) is listed as “more effective than carrageenan; also recorded: effective in protecting”.
Turning to `C=C1C[C@H]2[C@@H]3CCC4=CC(=O)CC[C@@H]4[C@H]3CC[C@]2(C)[C@@]1(OC(C)=O)C(C)=O` [NES, 16-methylene-17α-acetoxy-19-norpregn-4-ene-3,20-dione], the “metabolism upon oral administration” value in [6] was “rapid metabolism and inactivation”. In [7], the “progestational activity relative to levonorgestrel” value is 10 times and the “progestational activity relative to progesterone” value is on record as 100 times. The “androgenic, estrogenic and glucocorticoid-like activity” value in series [8] is “lack of androgenic, estrogenic and glucocorticoid-like”. Moreover, the “diffusion of NES through dialysis membrane” value in [9] is given as “diffused from the dialysis bag at a constant rate”.
Turning to dextran sulfate, the “effect of addition to the K-II/λ carrageenan composition on efficacy against HSV-2 infection in mice” value in [1] was “had no effect on efficacy”.
